Here are results for 17 molecules from patent US20240383856A1 (Zedira GmbH, priority 2021, published 2024).

Each structure is given as a SMILES string. Where only a bound is given, the exact number is not on record here.

Series [1] deals with T1, recombinant human transglutaminase 2 (Homo sapiens, UniProt P21980).
T1 construct: purchased Zedira T022
T1 sequence (P21980 1-687): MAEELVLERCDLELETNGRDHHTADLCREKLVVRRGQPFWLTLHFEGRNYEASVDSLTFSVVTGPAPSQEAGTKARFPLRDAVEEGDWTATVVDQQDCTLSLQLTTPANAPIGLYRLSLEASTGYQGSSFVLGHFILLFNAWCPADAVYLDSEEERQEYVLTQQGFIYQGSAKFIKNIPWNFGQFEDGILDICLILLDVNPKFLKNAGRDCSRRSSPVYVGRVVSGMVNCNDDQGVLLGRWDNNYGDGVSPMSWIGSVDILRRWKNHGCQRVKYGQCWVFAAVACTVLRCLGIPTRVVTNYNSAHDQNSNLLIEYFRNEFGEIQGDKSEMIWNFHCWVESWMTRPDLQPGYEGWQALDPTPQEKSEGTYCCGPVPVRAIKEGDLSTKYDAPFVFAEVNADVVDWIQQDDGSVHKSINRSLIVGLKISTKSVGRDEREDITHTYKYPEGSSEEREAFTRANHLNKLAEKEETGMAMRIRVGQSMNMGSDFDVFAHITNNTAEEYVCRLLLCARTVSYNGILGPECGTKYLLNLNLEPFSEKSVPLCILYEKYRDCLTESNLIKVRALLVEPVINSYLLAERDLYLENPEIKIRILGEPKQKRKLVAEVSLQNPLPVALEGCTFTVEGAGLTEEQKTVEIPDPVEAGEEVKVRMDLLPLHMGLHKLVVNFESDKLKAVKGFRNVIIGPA
In words: Transglutaminase assay (DCC-assay): incorporation of dansylcadaverine into dimethylcasein. Type of series: biochemical. To be noted: recombinant human TG2 10 nM; dansylcadaverine incorporation into dimethylcasein; read-out: IC50 TG2. In short, it runs like this:
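Recombinant human TG2 (10 nM final) incorporates dansylcadaverine into N,N-dimethylcasein. Reaction mix: 50 mM Tris-HCl, 10 mM CaCl2, 10 mM glutathione, 2.5% glycerol, 16.7 µM dansylcadaverine, 4 µM dimethylcasein, 200 mM NaCl, pH 8.0. Fluorescence (ex 330/em 500 nm) was followed 30 min at 37 °C; the 20–30 min slope, expressed as % of 2% DMSO control, gave IC50.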

The nature of series [2]: Caco-2 permeability assay (CacoReady kit). It is filed as in vitro ADME. To be noted: human, Caco-2, Caco-2 barrier, CacoReady kit; above 1×10^−6 cm/s classified as permeable. In short, it runs like this: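 Read-out is the permeability coefficient Papp, obtained from transport across a Caco-2 barrier prepared from a ready-to-use kit following the manufacturer's instructions.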
Background: Caco-2 cells form a polarised layer with tight junctions and transporters.

Series [3] can be described thus: logD by shake flask method (octanol / PBS pH 7.4, HPLC). Type of series: physicochemical. To be noted: octanol / PBS pH 7.4, shake flask. In short, it runs like this:
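Shake-flask partition of compound between octanol and phosphate-buffered saline at pH 7.4, with each phase quantified by HPLC to give LogD.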

The term IC50 denotes the concentration needed to halve the response being measured. A word on the Papp: it is the rate of passage across a membrane or cell layer, normalised by area and donor concentration. A higher Papp goes with fast passage. As a reminder, the logD is the decadic logarithm of the distribution of all forms, ionised or not, between an organic phase and buffer at a given pH. For `CCn1c(C(=O)N[C@@H](CCC(=O)C(=O)NC2CCCCC2)C(=O)Nc2cccn(CC(=O)NC34CC(C3)C4)c2=O)cc2ccccc21` [II-183, (S)-N1-(1-(2-(bicyclo[1.1.1]pentan-1-ylamino)-2-oxoethyl)-2-oxo-1,2-dihydropyridin-3-yl)-N6-cyclohexyl-2-(1-ethyl-1H-indole-2-carboxamido)-5-oxohexanediamide], in series [1], the IC50 was in the range of 40 to 400 nM. In series [2], this molecule came in with a Papp of 1 to 10 ×10⁻⁶ cm/s. In series [3], the logD is 1 to 3.

Take `Cc1nc2ncccc2cc1C(=O)N[C@@H](CCC(=O)C(=O)NC1CCCCC1)C(=O)Nc1cccn(CC(=O)NC23CC(C2)C3)c1=O` [II-184, (S)-N1-(1-(2-(bicyclo[1.1.1]pentan-1-ylamino)-2-oxoethyl)-2-oxo-1,2-dihydropyridin-3-yl)-N6-cyclohexyl-2-(2-methyl-1,8-naphthyridine-3-carboxamido)-5-oxohexanediamide]: in series [1], the IC50 lay within 400 to 2500 nM. The molecule further came in with a Papp in series [2] below 1 ×10⁻⁶ cm/s. This molecule also returned a logD in series [3] of 1 to 3.

For the molecule `CNC(=O)C(=O)CC[C@H](NC(=O)c1ccc2c(c1)CCCN2)C(=O)Nc1cccn(CC(=O)NC23CCC(C2)C3)c1=O` [II-185, (S)-N1-(1-(2-(bicyclo[2.1.1]hexan-1-ylamino)-2-oxoethyl)-2-oxo-1,2-dihydropyridin-3-yl)-N6-methyl-5-oxo-2-(1,2,3,4-tetrahydroquinoline-6-carboxamido)hexanediamide], in series [1], the half-inhibitory concentration (IC50) lay in the range of 400 to 2500 nM. In series [2], this molecule yielded an apparent permeability coefficient (Papp) below 1 ×10⁻⁶ cm/s. The molecule also yielded a log distribution coefficient (logD) in series [3] below 1.

For `CNC(=O)C(=O)CC[C@H](NC(=O)c1ccc2c(c1)CC(=O)NC2)C(=O)Nc1cccn(CC(=O)NC2(C(=O)O)C3CC4CC2CC(C(F)(F)F)(C4)C3)c1=O` (stereo partly drawn) [II-186, (S)-N1-(1-(2-(2-carboxy-2-amino-5-(trifluoromethyl)adamantane)-2-oxoethyl)-2-oxo-1,2-dihydropyridin-3-yl)-N6-methyl-5-oxo-2-(3-oxo-1,2,3,4-tetrahydroisoquinoline-6-carboxamido)hexanediamide], the 50% inhibitory concentration (IC50) in series [1] lay within 400 to 2500 nM. Moreover, the Papp in series [2] was below 1 ×10⁻⁶ cm/s. Besides, the logD in series [3] was below 1.

Consider `CCC12CC3CC(C1)C(NC(=O)Cn1cccc(NC(=O)[C@H](CCC(=O)C(=O)NC)NC(=O)c4ccc5cnccc5n4)c1=O)C(C3)C2` (stereo partly drawn) [II-187, (S)-N1-(1-(2-(5-ethyladamantane-2-amino)-2-oxoethyl)-2-oxo-1,2-dihydropyridin-3-yl)-N6-methyl-2-(1,6-naphthyridine-2-carboxamido)-5-oxohexanediamide], for which the 50% inhibitory concentration (IC50) in series [1] was 400 to 2500 nM. For the same molecule, the apparent permeability (Papp) in series [2] lay in the range of 1 to 10 ×10⁻⁶ cm/s. Moreover, the log distribution coefficient (logD) in series [3] lay within 3 to 5.

In the case of `CNC(=O)C(=O)CC[C@H](NC(=O)c1nccc2cnccc12)C(=O)Nc1cccn(CC(=O)NC23CCC(C2)C3)c1=O` [II-188, (S)-N1-(1-(2-(bicyclo[2.1.1]hexan-1-ylamino)-2-oxoethyl)-2-oxo-1,2-dihydropyridin-3-yl)-N6-methyl-2-(2,6-naphthyridine-1-carboxamido)-5-oxohexanediamide], the IC50 in series [1] was 400 to 2500 nM. Further, in series [2], the apparent permeability coefficient (Papp) is below 1 ×10⁻⁶ cm/s. In addition, the log distribution coefficient (logD) in series [3] is below 1.

On to `CNC(=O)C(=O)CC[C@H](NC(=O)c1nonc1N)C(=O)Nc1cccn(CC(=O)NC23CC(C2)C3)c1=O` [II-189, (S)-2-(4-amino-1,2,5-oxadiazole-3-carboxamido)-N1-(1-(2-(bicyclo[1.1.1]pentan-1-ylamino)-2-oxoethyl)-2-oxo-1,2-dihydropyridin-3-yl)-N6-methyl-5-oxohexanediamide], for which, in series [1], the IC50 was 400 to 2500 nM. In addition, in series [2], the apparent permeability coefficient (Papp) is below 1 ×10⁻⁶ cm/s. This molecule yielded a logD in series [3] below 1.

In the case of `CNC(=O)C(=O)CC[C@H](NC(=O)c1cc2ccc(N(C)C)cc2o1)C(=O)Nc1cccn(CC(=O)NC23CC(C2)C3)c1=O` [II-190, (S)-N1-(1-(2-(bicyclo[1.1.1]pentan-1-ylamino)-2-oxoethyl)-2-oxo-1,2-dihydropyridin-3-yl)-2-(6-(dimethylamino)benzofuran-2-carboxamido)-N6-methyl-5-oxohexanediamide], the IC50 in series [1] lay in the range of 400 to 2500 nM. Further, the apparent permeability coefficient (Papp) in series [2] is below 1 ×10⁻⁶ cm/s. Moreover, the logD in series [3] was below 1.

On to `CNC(=O)C(=O)CC[C@H](NC(=O)c1cnc(NC(C)=O)s1)C(=O)Nc1cccn(CC(=O)NC23CC(C2)C3)c1=O` [II-191, (S)-2-(2-acetamidothiazole-5-carboxamido)-N1-(1-(2-(bicyclo[1.1.1]pentan-1-ylamino)-2-oxoethyl)-2-oxo-1,2-dihydropyridin-3-yl)-N6-methyl-5-oxohexanediamide], for which the IC50 in series [1] lay within 400 to 2500 nM. This molecule also yielded a Papp in series [2] below 1 ×10⁻⁶ cm/s. The same molecule came in with a logD in series [3] below 1.

As for `CNC(=O)C(=O)CC[C@H](NC(=O)c1c[nH]c(C(N)=O)c1)C(=O)Nc1cccn(CC(=O)NC23CC(C2)C3)c1=O` [II-192, (S)-N4-(1-(1-(2-(bicyclo[1.1.1]pentan-1-ylamino)-2-oxoethyl)-2-oxo-1,2-dihydropyridin-3-ylamino)-6-(methylamino)-1,5,6-trioxohexan-2-yl)-1H-pyrrole-2,4-dicarboxamide], the IC50 in series [1] fell in the range of 400 to 2500 nM. The molecule further displayed an apparent permeability coefficient (Papp) in series [2] below 1 ×10⁻⁶ cm/s. In series [3], this molecule displayed a logD below 1.

Turning to `CNC(=O)C(=O)CC[C@H](NC(=O)c1coc(S(N)(=O)=O)c1)C(=O)Nc1cccn(CC(=O)NC2C3CC4CC2CC(NC(C)=O)(C4)C3)c1=O` (stereo partly drawn) [II-193, (S)-N1-(1-(2-(1-acetylamino-4-aminoadamantane)-2-oxoethyl)-2-oxo-1,2-dihydropyridin-3-yl)-N6-methyl-5-oxo-2-(5-sulfamoylfuran-3-carboxamido)hexanediamide], in series [1], the IC50 fell in the range of 400 to 2500 nM. The Papp in series [2] was below 1 ×10⁻⁶ cm/s. In series [3], this molecule yielded a logD below 1.

Take `CNC(=O)C(=O)CC[C@H](NC(=O)c1ccc2occc2c1)C(=O)Nc1cccn(CC(=O)NC2C3CC4CC2CC(NC(C)=O)(C4)C3)c1=O` (stereo partly drawn) [II-194, (S)-2-(benzofuran-5-carboxamido)-N1-(1-(2-(1-acetylamino-4-aminoadamantane)-2-oxoethyl)-2-oxo-1,2-dihydropyridin-3-yl)-N6-methyl-5-oxohexanediamide]: the concentration for half-maximal inhibition (IC50) in series [1] was 40 to 400 nM. This molecule registered a Papp in series [2] below 1 ×10⁻⁶ cm/s. In addition, the log distribution coefficient (logD) in series [3] was below 1.

Consider `CNC(=O)C(=O)CC[C@H](NC(=O)c1ccc2ccoc2c1)C(=O)Nc1cccn(CC(=O)NC2C3CC4CC2CC(C(N)=O)(C4)C3)c1=O` (stereo partly drawn) [II-195, (S)-2-(benzofuran-6-carboxamido)-N1-(1-(2-(4-aminoadamantane-1-carboxamide)-2-oxoethyl)-2-oxo-1,2-dihydropyridin-3-yl)-N6-methyl-5-oxohexanediamide], for which the IC50 in series [1] lay within 40 to 400 nM. In addition, in series [2], the apparent permeability coefficient (Papp) was below 1 ×10⁻⁶ cm/s. Also, the logD in series [3] was below 1.

Consider `CNC(=O)C(=O)CC[C@H](NC(=O)c1nc(C2(C)CC2)no1)C(=O)Nc1cccn(CC(=O)NC2C3CC4CC2CC(C(N)=O)(C4)C3)c1=O` (stereo partly drawn) [II-196, (S)-N1-(1-(2-(4-aminoadamantane-1-carboxamide)-2-oxoethyl)-2-oxo-1,2-dihydropyridin-3-yl)-N6-methyl-2-(3-(1-methylcyclopropyl)-1,2,4-oxadiazole-5-carboxamido)-5-oxohexanediamide], for which, in series [1], the half-maximal inhibitory concentration (IC50) was in the range of 400 to 2500 nM. In addition, the apparent permeability (Papp) in series [2] is below 1 ×10⁻⁶ cm/s. The logD in series [3] is below 1.

For the molecule `CNC(=O)C(=O)CC[C@H](NC(=O)c1noc(C)n1)C(=O)Nc1cccn(CC(=O)NC23CC(C2)C3)c1=O` [II-197, (S)-N1-(1-(2-(bicyclo[1.1.1]pentan-1-ylamino)-2-oxoethyl)-2-oxo-1,2-dihydropyridin-3-yl)-N6-methyl-2-(5-methyl-1,2,4-oxadiazole-3-carboxamido)-5-oxohexanediamide], the half-inhibitory concentration (IC50) in series [1] fell in the range of 400 to 2500 nM. This molecule yielded a Papp in series [2] below 1 ×10⁻⁶ cm/s. Besides, the logD in series [3] was below 1.

`CNC(=O)C(=O)CC[C@H](NC(=O)c1csnn1)C(=O)Nc1cccn(CC(=O)NC23CC(C2)C3)c1=O` [II-198, (S)-N1-(1-(2-(bicyclo[1.1.1]pentan-1-ylamino)-2-oxoethyl)-2-oxo-1,2-dihydropyridin-3-yl)-N6-methyl-5-oxo-2-(1,2,3-thiadiazole-4-carboxamido)hexanediamide]: the half-maximal inhibitory concentration (IC50) in series [1] fell in the range of 40 to 400 nM. The molecule further gave a Papp in series [2] below 1 ×10⁻⁶ cm/s. In series [3], the logD was below 1.

In the case of `CNC(=O)C(=O)CC[C@H](NC(=O)c1ncns1)C(=O)Nc1cccn(CC(=O)NC23CC(C2)C3)c1=O` [II-199, (S)-N1-(1-(2-(bicyclo[1.1.1]pentan-1-ylamino)-2-oxoethyl)-2-oxo-1,2-dihydropyridin-3-yl)-N6-methyl-5-oxo-2-(1,2,4-thiadiazole-5-carboxamido)hexanediamide], the 50% inhibitory concentration (IC50) in series [1] is 40 to 400 nM. This molecule displayed an apparent permeability coefficient (Papp) in series [2] below 1 ×10⁻⁶ cm/s. The same molecule yielded a logD in series [3] below 1.
